From the NIST ThermoML archive (doi:10.1021/je060271a)
± gives the expanded uncertainty stated by the source.

Settings: 283.15 K, Liquid, Vibrating tube method

Measured: mass density

CCCCC(=O)OCC(COC(=O)CCCC)(COC(=O)CCCC)COC(=O)CCCC [pentaerythritol tetrapentanoate]
1036.7 ± 1.2 kg/m3: 16699 kPa | 16798 kPa | 16844 kPa | 16900 kPa | 17000 kPa
1033.8 ± 1.2 kg/m3: 11505 kPa | 11549 kPa | 11661 kPa | 11743 kPa
1033 ± 1.2 kg/m3: 10248 kPa | 10286 kPa | 10363 kPa
1036.2 ± 1.2 kg/m3: 15694 kPa | 15899 kPa | 15938 kPa | 15986 kPa
1036 ± 1.2 kg/m3: 15295 kPa | 15369 kPa | 15451 kPa | 15488 kPa | 15525 kPa | 15571 kPa | 15648 kPa
1032.1 ± 1.2 kg/m3: 8501.2 kPa | 8586.3 kPa | 8726 kPa
1031.6 ± 1.2 kg/m3: 7592.3 kPa | 7655.5 kPa | 7745.1 kPa | 7771 kPa | 7814.7 kPa | 7863.9 kPa
1034.9 ± 1.2 kg/m3: 13230 kPa | 13460 kPa | 13493 kPa | 13521 kPa | 13551 kPa | 13615 kPa | 13643 kPa
1035.3 ± 1.2 kg/m3: 14051 kPa | 14148 kPa | 14186 kPa | 14248 kPa | 14317 kPa
1034.4 ± 1.2 kg/m3: 12515 kPa | 12589 kPa | 12624 kPa | 12739 kPa
1033.5 ± 1.2 kg/m3: 11099 kPa | 11173 kPa | 11241 kPa
1032.7 ± 1.2 kg/m3: 9632.7 kPa | 9707.5 kPa | 9743 kPa | 9779.3 kPa
1030.4 ± 1.2 kg/m3: 5629.7 kPa | 5688.1 kPa | 5723.9 kPa
1034.1 ± 1.2 kg/m3: 11992 kPa | 12080 kPa | 12120 kPa | 12161 kPa | 12253 kPa
1034.2 ± 1.2 kg/m3: 12348 kPa | 12392 kPa | 12436 kPa
1030.3 ± 1.2 kg/m3: 5659.1 kPa
1035.6 ± 1.2 kg/m3: 14694 kPa | 14735 kPa | 14808 kPa | 14842 kPa | 14912 kPa | 15066 kPa
1032 ± 1.2 kg/m3: 8393.6 kPa | 8474.7 kPa | 8527.8 kPa | 8554.5 kPa | 8612.5 kPa | 8759.1 kPa
1035.2 ± 1.2 kg/m3: 13954 kPa | 13984 kPa | 14082 kPa | 14118 kPa
1031.1 ± 1.2 kg/m3: 6593.5 kPa | 6717.5 kPa | 6771.1 kPa | 6796.3 kPa | 6876.8 kPa | 6902.9 kPa | 7079.3 kPa
1032.4 ± 1.2 kg/m3: 8998.4 kPa | 9092.4 kPa | 9189.8 kPa | 9320.3 kPa
1036.1 ± 1.2 kg/m3: 15414 kPa | 15609 kPa | 15732 kPa | 15772 kPa | 15819 kPa | 15859 kPa
1030.6 ± 1.2 kg/m3: 5779.1 kPa | 5961.9 kPa | 5987.7 kPa | 6044.4 kPa | 6070.3 kPa | 6097.3 kPa | 6128.9 kPa | 6245.2 kPa
1030.8 ± 1.2 kg/m3: 6155.9 kPa | 6336.3 kPa | 6365.5 kPa | 6395.6 kPa | 6462.7 kPa
1031.7 ± 1.2 kg/m3: 7702.1 kPa | 7792.7 kPa | 7836.8 kPa | 7886.1 kPa | 7909.2 kPa | 8005.6 kPa
1031.5 ± 1.2 kg/m3: 7377.5 kPa | 7440.5 kPa | 7504.4 kPa | 7634.1 kPa | 7723.5 kPa
1036.5 ± 1.2 kg/m3: 16291 kPa | 16376 kPa | 16421 kPa | 16559 kPa
1033.2 ± 1.2 kg/m3: 10449 kPa | 10537 kPa | 10577 kPa
1035.5 ± 1.2 kg/m3: 14419 kPa | 14522 kPa | 14588 kPa | 14660 kPa | 14989 kPa
1034.3 ± 1.2 kg/m3: 12211 kPa | 12474 kPa | 12549 kPa | 12775 kPa
1035.4 ± 1.2 kg/m3: 14216 kPa | 14279 kPa | 14348 kPa | 14380 kPa | 14451 kPa | 14490 kPa | 14555 kPa | 14628 kPa
1035.1 ± 1.2 kg/m3: 13672 kPa | 13764 kPa | 13829 kPa | 13858 kPa | 13893 kPa | 13923 kPa | 14021 kPa
1036.8 ± 1.2 kg/m3: 16753 kPa | 16949 kPa
1032.9 ± 1.2 kg/m3: 9813.6 kPa | 9848.6 kPa | 10044 kPa | 10125 kPa
1031.4 ± 1.2 kg/m3: 7234.2 kPa | 7315.5 kPa | 7334.8 kPa | 7354.5 kPa | 7396.8 kPa | 7420.6 kPa | 7460.5 kPa | 7480.2 kPa | 7525.1 kPa | 7680.7 kPa
1035.7 ± 1.2 kg/m3: 14768 kPa | 14877 kPa | 15024 kPa | 15101 kPa
1035 ± 1.2 kg/m3: 13580 kPa | 13701 kPa | 13736 kPa | 13794 kPa
1036.3 ± 1.2 kg/m3: 16067 kPa | 16116 kPa | 16157 kPa
1031.8 ± 1.2 kg/m3: 8132.6 kPa | 8156.2 kPa | 8209.7 kPa | 8234 kPa | 8337.9 kPa
1031 ± 1.2 kg/m3: 6565.5 kPa | 6616.8 kPa | 6640.3 kPa | 6668.5 kPa | 6692.7 kPa | 6741.9 kPa | 6820.7 kPa | 6850.6 kPa
1036.6 ± 1.2 kg/m3: 16472 kPa | 16515 kPa | 16655 kPa
1034.6 ± 1.2 kg/m3: 12815 kPa | 12974 kPa | 13031 kPa | 13142 kPa | 13174 kPa
1030.5 ± 1.2 kg/m3: 5754.6 kPa | 5803 kPa | 5832 kPa | 5856.1 kPa | 5881 kPa | 5906.4 kPa | 5936.8 kPa | 6018.4 kPa
1034.8 ± 1.2 kg/m3: 13285 kPa | 13317 kPa | 13344 kPa | 13377 kPa | 13404 kPa | 13432 kPa
1031.2 ± 1.2 kg/m3: 6929.7 kPa | 6961.3 kPa | 6989.3 kPa | 7017.1 kPa | 7043.5 kPa | 7061.5 kPa | 7097.4 kPa | 7118.7 kPa
1030.7 ± 1.2 kg/m3: 6188.9 kPa | 6217.1 kPa | 6273.6 kPa | 6301.9 kPa
1035.8 ± 1.2 kg/m3: 14954 kPa | 15137 kPa | 15180 kPa | 15216 kPa | 15333 kPa
1033.9 ± 1.2 kg/m3: 11623 kPa | 11782 kPa | 11867 kPa | 11906 kPa
1033.3 ± 1.2 kg/m3: 10619 kPa | 10668 kPa | 10753 kPa | 10805 kPa | 10894 kPa | 10948 kPa
1035.9 ± 1.2 kg/m3: 15252 kPa
1032.5 ± 1.2 kg/m3: 9257.3 kPa | 9288.4 kPa
1031.9 ± 1.2 kg/m3: 8079.8 kPa | 8258.7 kPa | 8283.5 kPa | 8312.9 kPa | 8363.2 kPa | 8444.3 kPa
1033.6 ± 1.2 kg/m3: 11132 kPa | 11318 kPa | 11354 kPa
1033.4 ± 1.2 kg/m3: 10710 kPa | 10848 kPa | 10990 kPa | 11025 kPa | 11059 kPa
1033.1 ± 1.2 kg/m3: 10200 kPa | 10324 kPa | 10410 kPa | 10489 kPa
1032.2 ± 1.2 kg/m3: 8418.8 kPa | 8644.9 kPa | 8671.8 kPa | 8698.7 kPa | 8787 kPa | 8815 kPa | 8877 kPa
1032.6 ± 1.2 kg/m3: 9220.8 kPa | 9599.3 kPa
1032.3 ± 1.2 kg/m3: 8848.6 kPa | 8906.3 kPa | 8934.4 kPa | 8969.3 kPa | 9027.7 kPa | 9158.9 kPa
1031.3 ± 1.2 kg/m3: 7256.3 kPa | 7276 kPa | 7295 kPa
1034.5 ± 1.2 kg/m3: 12659 kPa | 12695 kPa | 12841 kPa | 12867 kPa | 12897 kPa | 12922 kPa | 12949 kPa | 13005 kPa | 13058 kPa | 13089 kPa
1036.4 ± 1.2 kg/m3: 16026 kPa | 16199 kPa | 16241 kPa | 16333 kPa | 16611 kPa
1034.7 ± 1.2 kg/m3: 13115 kPa | 13203 kPa | 13257 kPa
1033.7 ± 1.2 kg/m3: 11207 kPa | 11283 kPa | 11389 kPa | 11432 kPa | 11468 kPa | 11586 kPa
1036.9 ± 1.2 kg/m3: 17050 kPa
1032.8 ± 1.2 kg/m3: 9666.3 kPa | 9891.1 kPa | 9926.8 kPa | 9963 kPa | 10006 kPa
1034 ± 1.2 kg/m3: 11706 kPa | 11828 kPa | 12032 kPa | 12295 kPa
1030.9 ± 1.2 kg/m3: 6431.7 kPa | 6491.7 kPa | 6519.4 kPa | 6542.3 kPa
